Laboratory results as given in patent US6420367B1, “Pyrimidine derivatives exhibiting antitumor activity” (Shionogo & Co., Ltd., priority 1998, dated 2002).
≈ marks a conversion by molar mass, not a printed value.

Tests used:
[1] = tested on: human squamous lung cancer RERF-RC-AI; experiment: In vitro cell growth inhibition test, MTT assay; format: cell-based; conditions: MTT assay 4 days after compound addition
Source text: (§1) Test Example 2 In Vitro Cell Growth Inhibition Test Cells and MTT Assay
(§2) Human squamous lung cancer […], human squamous lung cancer Ma44, human lung adenocarcinoma A549, human colon cancer HT29 and human pancreas cancer PANC-1 were used.

[2] = tested on: human lung adenocarcinoma A549; experiment: In vitro cell growth inhibition test, MTT assay; format: cell-based; conditions: MTT assay 4 days after compound addition
Source text: as §1, §2

human colon cancer HT29 = experiment: In vitro cell growth inhibition test, MTT assay; format: cell-based; conditions: MTT assay 4 days after compound addition
Source text: as §1, §2

[3] = tested on: human squamous lung cancer Ma44; experiment: In vitro cell growth inhibition test, MTT assay; format: cell-based; conditions: MTT assay 4 days after compound addition
Source text: as §1, §2

[4] = tested on: human pancreas cancer PANC-1; experiment: In vitro cell growth inhibition test, MTT assay; format: cell-based; conditions: MTT assay 4 days after compound addition
Source text: as §1, §2

[5] = tested on: DT-R cells (pRRE3-luc-transfected v-ki-ras-transformed NIH3T3 cells); signal derived from Ras oncogene products; experiment: Inhibitory effect against cellular signaling derived from Ras oncogene products: luciferase reporter, dissociation of DT-R from DT-C activity (MAC); format: cell-based, mouse; conditions: minimal tested concentration at which luciferase activities of DT-C cells and DT-R cells dissociated
Source text: Test Example 1 Inhibitory Effect Against Cellular Signaling Derived From Ras Oncogene Products
1) Establishment of Cell Lines Used in Assay
Based on the reporter plasmid (pGV-P (Toyo Ink, Japan)), in which luciferase gene was ligated to SV40-derived minimal promoter, we constructed a plasmid designated pRRE3-luc by inserting 3 copies of chemically synthesized oligonucleotides (Sequence: CAGGATATGACTCT, derived from mouse NVL-3 (M. A. Reddy et al.(1992)Mol. Endocrinol., 6, 1051)) into upstream of the promoter. v-ki-ras-transformed NIH3T3 cells (DT cells, provided by Dr. Makoto Noda (Kyoto Univ., School of medicine)) were transfected with this plasmid by liposome-mediated transfection and transfected cell lines stably incorporated and maintained each plasmid were obtained. We named pGV-P and pRRE3-transfected cell line as DT-C and DT-R, respectively and used in the assay described below.
2) Preparation of Samples
i) All the cell lines were cultured in Dulbecco's Modified Essential Medium (DMEM: 10% Fetal Calf Serum(FCS: Hyclone, USA)) including […] kanamycin (Meiji Seika, Japan) in humidified incubator under condition of 5% CO2 at 37° C.
ii) DT-C and DT-R cells were seeded at 2500 cells/well into flat-bottom 96 well multiplate (Sumitomo bakelite) and incubated for 24 hours.
iii) Test compounds were prepared as 1 mg/ml DMSO solution.
iv) The solution of test compounds were added to the culture. Tested compounds are used at the concentration from […] to 0.51 ng/ml with by 3-fold dilution.
v) After 24 hours, the culture supernatant was completely aspirated and […] of cell-lysing solution (PGC-50 (Toyo Ink, Japan)) was added before cells were dried up. In order to the cells were lysed completely, multiwell plates were left at room temperature for 10 to 30 min. The plates were wrapped up and stored at −20° C. till the day of measurement.
3) Measurement of Samples
i) Melt the samples by putting 96 well multiplate at 37° C. and add 90 μl/well 25 mM Tris (pH 7.5).
ii) Transfer 50 μl of the sample (110 μl) to the 96 well microplate for measurement (Microlite 1 (Dynatech)).
iii) Measure the samples by the luminometer, LUMINOUS CT9000D (Dia-Yatron, Japan). We used Pickagene luminescence kit PGL2000 or LT2.0 (Toyo Ink, Japan) as substrates for luminescence measurement (50 μl/well).
4) Judgment of the Results
i) The luciferase activity of DT-C cells and DT-R cells were plotted in the graph where the relative activity and the compound concentration were expressed as Y-axis and X-axis, respectively. We judged by the degree of dissociation between the activities of DT-C cells and DT-R cells as an index.
ii) Concretely, efficacy of the compound was expressed by two values described below.
a) Among the points of concentration tested, the minimal concentration (Minimal Active Concentration: MAC), at which the activities of DT-C cells and DT-R cells dissociated, was shown as an index of efficacy of the compound.

Compound | IC50, RERF-LC-AI [1] | IC50, A549 [2] | IC50, HT29 (human colon cancer HT29) | IC50, Ma44 [3] | IC50, PANC-1 [4] | MAC (Minimal Active Concentration) [5]
CCNC(=Nc1nc(C)ncc1CSc1nnc(-c2ccccc2N)o1)NC [Compound A-1] | 0.018 µg/mL (≈ 0.0452 µM) | 0.022 µg/mL (≈ 0.0552 µM) | 0.012 µg/mL (≈ 0.0301 µM) | 0.039 µg/mL (≈ 0.0979 µM) | 0.016 µg/mL (≈ 0.0402 µM) | 0.0412 µg/mL
CCNC(=Nc1nc(C)ncc1CSc1nnc(-c2ccccc2NC(C)=O)o1)NC [Compound A-2] | 0.009 µg/mL (≈ 0.0204 µM) | 0.017 µg/mL (≈ 0.0386 µM) | 0.015 µg/mL (≈ 0.034 µM) | 0.022 µg/mL (≈ 0.0499 µM) | 0.015 µg/mL (≈ 0.034 µM) | 0.0412 µg/mL
CCNC(=Nc1ncncc1CSc1nnc(-c2ccc(N)cc2)o1)NCC [Compound A-3] | 0.026 µg/mL (≈ 0.0652 µM) | 0.035 µg/mL (≈ 0.0878 µM) | 0.0066 µg/mL (≈ 0.0166 µM) | 0.09 µg/mL (≈ 0.226 µM) | 0.015 µg/mL (≈ 0.0376 µM) | 0.0412 µg/mL
CCNC(=Nc1nc(C)ncc1CSc1nnc(-c2cc(F)c(F)cc2N)o1)NCC [Compound A-52] |  | 0.049 µg/mL (≈ 0.109 µM) |  | 0.11 µg/mL (≈ 0.245 µM) | 0.024 µg/mL (≈ 0.0535 µM) | 0.123 µg/mL
CCNC(=Nc1ncncc1CSc1nnc(-c2ccccc2NC(C)=O)o1)NCC [Compound A-57] |  | 0.014 µg/mL (≈ 0.0318 µM) |  | 0.025 µg/mL (≈ 0.0567 µM) | 0.0088 µg/mL (≈ 0.02 µM) | 0.0137 µg/mL
CCNC(=Nc1nc(C)ncc1CSc1nnc(-c2ccc(N)cc2Cl)o1)NCC [Compound A-64] | 0.013 µg/mL (≈ 0.0291 µM) | 0.034 µg/mL (≈ 0.0761 µM) | 0.015 µg/mL (≈ 0.0336 µM) | 0.086 µg/mL (≈ 0.192 µM) | 0.03 µg/mL (≈ 0.0671 µM) | 0.370 µg/mL
CCNC(=Nc1ncncc1CSc1nnc(-c2ccc(F)cc2N)o1)NCC [Compound A-65] | 0.0014 µg/mL (≈ 0.00336 µM) | 0.0028 µg/mL (≈ 0.00672 µM) | 0.0014 µg/mL (≈ 0.00336 µM) | 0.09 µg/mL (≈ 0.216 µM) | 0.0021 µg/mL (≈ 0.00504 µM) | <0.000508 µg/mL
CCNC(=Nc1ncncc1CSc1nnc(-c2ccc(N(C)C)cc2)o1)NCC [Compound A-67] | 0.053 µg/mL (≈ 0.124 µM) | 0.083 µg/mL (≈ 0.195 µM) | 0.083 µg/mL (≈ 0.195 µM) | 6.1 µg/mL (≈ 14.3 µM) | 0.34 µg/mL (≈ 0.797 µM) | 
CNC(=Nc1nc(C)ncc1CSc1nnc(-c2ccccc2N)o1)NC [Compound A-70] | 0.0067 µg/mL (≈ 0.0174 µM) | 0.013 µg/mL (≈ 0.0338 µM) | 0.0084 µg/mL (≈ 0.0218 µM) | 0.032 µg/mL (≈ 0.0832 µM) | 0.015 µg/mL (≈ 0.039 µM) | 0.123 µg/mL
CCNC(=Nc1nc(C)ncc1CSc1nnc(-c2ccc(N)c(C)c2)o1)NCC [Compound A-71] | 0.077 µg/mL (≈ 0.181 µM) | 0.72 µg/mL (≈ 1.69 µM) | 0.093 µg/mL (≈ 0.218 µM) | 0.31 µg/mL (≈ 0.727 µM) | 0.18 µg/mL (≈ 0.422 µM) | 1.11 µg/mL
CCNC(=Nc1nc(C)ncc1CSc1nnc(-c2ccc(C)cc2)o1)NCC [Compound A-74] | 0.008 µg/mL (≈ 0.0194 µM) | 0.034 µg/mL (≈ 0.0826 µM) | 0.01 µg/mL (≈ 0.0243 µM) | 0.012 µg/mL (≈ 0.0292 µM) | 0.017 µg/mL (≈ 0.0413 µM) | 0.123 µg/mL
CCNC(=Nc1nc(C)ncc1CSc1nnc(-c2ccc(N)cc2N)o1)NCC [Compound A-76] | 0.008 µg/mL (≈ 0.0187 µM) | 0.02 µg/mL (≈ 0.0468 µM) | 0.008 µg/mL (≈ 0.0187 µM) | 0.1 µg/mL (≈ 0.234 µM) | 0.016 µg/mL (≈ 0.0374 µM) | 0.0137 µg/mL
CCNC(=Nc1nc(C)ncc1CSc1nnc(-c2ccccc2Cl)o1)NCC [Compound A-77] | 0.03 µg/mL (≈ 0.0695 µM) | 0.13 µg/mL (≈ 0.301 µM) | 0.044 µg/mL (≈ 0.102 µM) | 0.11 µg/mL (≈ 0.255 µM) | 0.048 µg/mL (≈ 0.111 µM) | 
CCNC(=Nc1nc(C)ncc1CSc1nnc(-c2ccccc2C)o1)NCC [Compound A-78] | 0.017 µg/mL (≈ 0.0413 µM) | 0.063 µg/mL (≈ 0.153 µM) | 0.021 µg/mL (≈ 0.051 µM) | 0.052 µg/mL (≈ 0.126 µM) | 0.037 µg/mL (≈ 0.0899 µM) | 
CCNC(=Nc1nc(C)ncc1CSc1nnc(-c2ccc([N+](=O)[O-])cc2)o1)NCC [Compound A-82] | 0.008 µg/mL (≈ 0.0181 µM) | 0.031 µg/mL (≈ 0.0701 µM) | 0.006 µg/mL (≈ 0.0136 µM) | 0.014 µg/mL (≈ 0.0316 µM) | 0.014 µg/mL (≈ 0.0316 µM) | <0.000508 µg/mL
CCNC(=Nc1nc(C)ncc1CSc1nnc(-c2ccc(C(=O)c3ccccc3)cc2)o1)NCC [Compound A-84] | 0.18 µg/mL (≈ 0.359 µM) | 0.44 µg/mL (≈ 0.877 µM) | 0.38 µg/mL (≈ 0.758 µM) | 0.41 µg/mL (≈ 0.817 µM) | 0.3 µg/mL (≈ 0.598 µM) | 
CCNC(=Nc1nc(C)ncc1CSc1nnc(-c2ccccc2)o1)NCC [Compound A-107] |  | 0.065 µg/mL (≈ 0.164 µM) | 0.036 µg/mL (≈ 0.0906 µM) | 0.055 µg/mL (≈ 0.138 µM) | 0.052 µg/mL (≈ 0.131 µM) | 0.370 µg/mL
CCNC(=Nc1ncncc1CSc1nnc(-c2ccc(SC)cc2)o1)NCC [Compound A-120] | 0.024 µg/mL (≈ 0.0559 µM) | 1.3 µg/mL (≈ 3.03 µM) | 0.023 µg/mL (≈ 0.0535 µM) | 0.1 µg/mL (≈ 0.233 µM) | 0.055 µg/mL (≈ 0.128 µM) | 0.123 µg/mL
CCNC(=Nc1ncncc1CSc1nnc(-c2ccc([N+](=O)[O-])cc2)o1)NCCN [Compound A-122] | 0.14 µg/mL (≈ 0.316 µM) | 2.1 µg/mL (≈ 4.74 µM) | 0.089 µg/mL (≈ 0.201 µM) | 0.3 µg/mL (≈ 0.676 µM) | 0.21 µg/mL (≈ 0.474 µM) | 1.11 µg/mL
Cc1ncc(CSc2nnc(-c3ccc([N+](=O)[O-])cc3)o2)c(N=C(NCC(C)C)NCC(C)C)n1 [Compound A-129] | 0.17 µg/mL (≈ 0.341 µM) | 0.43 µg/mL (≈ 0.862 µM) | 0.3 µg/mL (≈ 0.602 µM) | 0.33 µg/mL (≈ 0.662 µM) | 0.21 µg/mL (≈ 0.421 µM) | 
CCNC(=Nc1nc(C)ncc1CSc1nnc(-c2ccc([N+](=O)[O-])cc2F)o1)NCC [Compound A-132] | 0.05 µg/mL (≈ 0.109 µM) | 0.18 µg/mL (≈ 0.391 µM) | 0.039 µg/mL (≈ 0.0847 µM) | 0.077 µg/mL (≈ 0.167 µM) | 0.081 µg/mL (≈ 0.176 µM) | 0.123 µg/mL
CCNC(=Nc1nc(C)ncc1CSc1nnc(-c2ccc([N+](=O)[O-])cc2)o1)NC(C)C [Compound A-134] | 0.016 µg/mL (≈ 0.035 µM) | 0.049 µg/mL (≈ 0.107 µM) | 0.013 µg/mL (≈ 0.0285 µM) | 0.026 µg/mL (≈ 0.057 µM) | 0.025 µg/mL (≈ 0.0548 µM) | 0.0137 µg/mL
CCNC(=Nc1nc(C)ncc1CSc1nnc(-c2c[nH]nc2N)o1)NCC [Compound D-7] | 0.083 µg/mL (≈ 0.206 µM) | 3.2 µg/mL (≈ 7.95 µM) | 0.18 µg/mL (≈ 0.447 µM) | 5.2 µg/mL (≈ 12.9 µM) | 2.4 µg/mL (≈ 5.96 µM) | 
CCNC(=Nc1ncncc1CSc1nnc(-c2cc[n+]([O-])cc2)o1)NCC [Compound D-42] | 0.082 µg/mL (≈ 0.205 µM) | 0.57 µg/mL (≈ 1.42 µM) | 0.071 µg/mL (≈ 0.177 µM) | 0.38 µg/mL (≈ 0.949 µM) | 0.17 µg/mL (≈ 0.425 µM) | 
CCNC(=Nc1ncncc1CSc1nnc(-c2csc([N+](=O)[O-])c2)o1)NCC [Compound D-43] | 0.21 µg/mL (≈ 0.483 µM) | 0.27 µg/mL (≈ 0.621 µM) | 0.1 µg/mL (≈ 0.23 µM) | 0.2 µg/mL (≈ 0.46 µM) | 0.1 µg/mL (≈ 0.23 µM) | 
